In PMC7403138 (Clinical Pharmacokinetics, 2020):

Assay: Population pharmacokinetic analysis
Type: in vivo, human

Row | FRator-oOH (base PK model) [%] | between-subject variability on CLator (base PK model, CV%) [%] | between-subject variability on FRator-oOH (base PK model, CV%) [%] | between-subject variability on Vcator=Vcmet (base PK model, CV%) [%] | decrease in logit(FRator-oOH) (coadministration of boosted ARVs) [%] | central volume of distribution of atorvastatin and o-OH-atorvastatin (Vcator=Vcmet) (base PK model) [L] | metabolite clearance (CLo-OH-ator) (base PK model) [L/h] | o-OH-atorvastatin formed slower (presence vs absence of boosted ARVs, full dataset) [%] | SMILES
1 | 11 | 94 | 131 | 137 | 225 |  |  |  | CC(C)c1c(C(=O)Nc2ccccc2)c(-c2ccccc2)c(-c2ccc(F)cc2)n1CC[C@@H](O)C[C@@H](O)CC(=O)O [atorvastatin]
2 |  |  |  |  |  | 3170 | 118 | 88 | CC(C)c1c(C(=O)Nc2ccccc2O)c(-c2ccccc2)c(-c2ccc(F)cc2)n1CC[C@@H](O)C[C@@H](O)CC(=O)O [o-OH-atorvastatin, ortho-hydroxy atorvastatin]
